Source: patent US9421206B1, “Hematological treatments based on levomefolate” (Cox Bioscience LLC, priority 2013, dated 2016)
Read-outs that look alike come from different tables or passages of the source.

What was measured:
[1] = test system: Megaloblastic Bone Marrow Cells (B12 Deficiency); conditions: cited from earlier work
[2] = test system: Megaloblastic Bone Marrow Cells (Folate Deficiency); conditions: cited from earlier work
[3] = Reanalysis of NHANES 1988-1994 vs 1999-2004: impact of folic acid supplement use on anemia and macrocytosis; type: in vivo, human; conditions: men; 1988-1994 to 1999-2004, with increased use of folic acid supplements
Excerpt: In order to determine whether folic acid supplements could be affecting the incidence of macrocytosis in the United States or whether folic acid supplements could be negatively influencing macrocytic processes, NHANES data reported in Ganji et al., AM. J. CLIN. NUTR. 2009; 89:363-71, were reanalyzed, this time over an extended time period from 1988-1994 until 1999-2004, to determine the impact of supplement use on the incidence of macrocytosis and mean corpuscular volume. Unless otherwise indicated, NHANES data collection methods were substantially the same as in Examples 1 and 2. This study used data from 4 surveys: NHANES 1988-1994, NHANES 1999-2000, NHANES 2001-2002, and NHANES 2003-2004. […] For NHANES 1988-1994 and 1999-2004, multivariate-adjusted and univariate values for hemoglobin, hematocrit, and MCV and prevalence rates (%) for overall anemia and macrocytosis were determined according to sex, race-ethnicity, age, poverty, and vitamin/mineral supplement use (yes or no). Prevalence of anemia (%) based on low hemoglobin concentrations and prevalence of macrocytosis (%) based on high MCV values were determined for the aforementioned demographic categories. The differences in hemoglobin, hematocrit, MCV, and prevalence of anemia and macrocytosis between NHANES 1988-1994 and NHANES 1999-2004 were determined with a 2-tailed unpaired t test. […]

[4] = Evaluation of NHANES 1999-2002 data: hematological markers by serum folate decile, supplement use and unmetabolized folic acid; type: in vivo, human; conditions: for effect on production of hemoglobin: seniors aged >=60 y, serum hemoglobin with rising serum folate, with or without unmetabolized folic acid; for impact on homocysteine, methylmalonic acid and lactate dehydrogenase: when homocysteine or lactate dehydrogenase levels are elevated; for effect on MCV: with rising serum folate, with or without supplement use
Excerpt: An evaluation of data gathered through NHANES was undertaken to determine the effect of unmetabolized folic acid on serum hemoglobin concentrations. NHANES monitors the nation's health and nutritional status. The survey is currently implemented as a continuous annual survey and uses a complex multistage probability design to select a representative sample of the non-institutionalized US civilian population. Consistent with NHANES analytic guidelines, this example combines data from two separate survey periods spanning 1999-2002. The methods used herein are described in greater detail in Morris et al., AM. J. CLIN. NUTR. 2012; 91:1733-44, and are repeated herein for a more thorough understanding. A detailed description of blood collection and processing can be found in the NHANES Laboratory Procedures Manual. This particular example focuses on seniors (i.e., those aged ≧60 y), and included 3706 senior survey participants. Hemoglobin concentrations were measured at the MEC laboratory by using a MAXM hematology flow cytometer (Beckman Coulter Inc, Fullerton, Calif.). Detailed methods for all the biochemical assays can be found in the NHANES Laboratory Procedures Manuals. Eligible participants were divided into ten […] based on their serum folate concentrations, so that decile 1 includes the 10% of the participants having the lowest serum folate concentrations, decile 10 includes the 10% of the participants having the highest serum folate concentrations. etc. Participants in each decile were then further subdivided based on the detection of unmetabolized folic acid, and/or the participant's serum B12 or serum iron concentration, and mean hemoglobin concentrations calculated for each decile. Data analyses were performed by using SUDAAN release 9.0 (Research Triangle Institute, Research Triangle Park, N.C.) with appropriate sampling weights, pseudo primary sampling units, and stratification variables to account for the survey's complex sampling design.

[5] = apparently healthy human subjects; cited from earlier work
[6] = B12 deficiency, concentration 0.3 (unit not given)
[7] = B12 deficiency, concentration 1 (unit not given)
[8] = B12 deficiency, concentration 3 (unit not given)
[9] = B12 deficiency, concentration 6 (unit not given)
[10] = B12 deficiency, concentration 15 (unit not given)
[11] = B12 deficiency, concentration 30 (unit not given)
[12] = concentration 0.3 (unit not given)
[13] = concentration 1 (unit not given)
[14] = concentration 3 (unit not given)
[15] = concentration 6 (unit not given)
[16] = concentration 30 (unit not given)
[17] = B12 deficiency, concentration 75 (unit not given)
[18] = B12 deficiency, concentration 300 (unit not given)
[19] = concentration 15 (unit not given)
[20] = concentration 300 (unit not given)

| Compound | dU suppression test value [1, 6] [%] | dU suppression test value [1, 7] [%] | dU suppression test value [1, 8] [%] | dU suppression test value [1, 9] [%] | dU suppression test value [1, 10] [%] | dU suppression test value [1, 11] [%] | dU suppression test value [2, 12] [%] | dU suppression test value [2, 13] [%] | dU suppression test value [2, 14] [%] | dU suppression test value [2, 15] [%] | dU suppression test value [2, 16] [%] | effect on production of hemoglobin [4] | impact on homocysteine, methylmalonic acid and lactate dehydrogenase [4] | effect on MCV [4] | dU suppression test value [1, 17] [%] | dU suppression test value [1, 18] [%] | dU suppression test value [2, 19] [%] | dU suppression test value [2, 20] [%] | also measured |
| --- | --- | --- | --- | --- | --- | --- | --- | --- | --- | --- | --- | --- | --- | --- | --- | --- | --- | --- | --- |
| Nc1nc(=O)c2c([nH]1)NCC(CNc1ccc(C(=O)N[C@@H](CCC(=O)O)C(=O)O)cc1)N2C=O (mixture of isomers) [folinic acid] | 4.5 | 2.5 | 1.9 | 2.0 | 2.2 | 1.6 | 3.4 | 1.9 | 1.9 | 1.3 | 1.0 | – | – | – | – | – | – | – | effectiveness in overcoming the defect in DNA precursor synthesis ([1]; all types of vitamin deficiency): most effective |
| Nc1nc2ncc(CNc3ccc(C(=O)N[C@@H](CCC(=O)O)C(=O)O)cc3)nc2c(=O)[nH]1 [folic acid] | – | 14.8 | 12 | – | – | – | – | 10.3 | – | – | – | reduces the production of hemoglobin | negative impact | leads to increases in MCV | – | – | – | – | incidence of macrocytosis [3]: increased; prevalence of anemia [3]: dropped; dU suppression test value ([1]; B12 deficiency, concentration 50 (unit not given)): 4.1%; dU suppression test value ([2]; concentration 5 (unit not given)): 5.5%; dU suppression test value ([2]; concentration 50 (unit not given)): 2.3%; effect on MCV in survey participants with elevated LDH levels ([4]; LDH > 198 U/L, as folate concentrations increased): increased the MCV; effect on red cell count ([4]; same folate levels, with vs without folic acid supplements): red cell count is improved in the absence of folic acid |
| CN1c2c(nc(N)[nH]c2=O)NC[C@@H]1CNc1ccc(C(=O)N[C@@H](CCC(=O)[O-])C(=O)[O-])cc1.[Ca+2] [me-THF, L-5-methyltetrahydrofolate] | – | – | 16.1 | – | – | 12.9 | – | – | 3.9 | 4.6 | 4.5 | promotes the production of hemoglobin | positive impact | generally leads to a reduction in MCV | 18.4 | 15.7 | 2.7 | 4.3 | effect on homocysteine levels [5]: decrease homocysteine levels; concentration restoring normal dU suppression ([1]; vitamin B12 deficiency): > 300 µg/mL |
| tetrahydrofolate [THF] | 10.8 | 8.1 | 9.3 | 6.3 | 4.9 | 5.0 | 14.3 | 8.6 | 4.0 | 2.5 | 2.2 | – | – | – | 3.5 | 2.4 | 2.1 | 1.9 | level giving correction of dU suppression ([1]; megaloblastic anemia due to vitamin B12 deficiency): above 6 mL/ml |
| α-(5,6-dimethylbenzimidazolyl)cobamide [B12] | – | – | – | – | – | – | – | – | – | – | – | – | – | – | – | – | – | – | dU suppression test value ([1]; B12 deficiency, 10 mcg/ml): 5.8%; dU suppression test value ((3H)-TdR incorporation with dU as percentage of incorporation without dU) ([1]; B12 deficiency, 100 mcg/ml): 5.7%; dU suppression test value ([2]; 10 mcg/ml): 12.3%; dU suppression test value ([2]; 100 mcg/ml): 16.3% |
